Test results from US9957264B2 (Merck Sharp & Dohme Corp., priority 2013, dated 2018).

How the values were obtained:
[1] = molecular target: JAK1 (recombinant purified GST-tagged catalytic domain) (Homo sapiens (Human), UniProt P23458); test: Jak Biochemical HTRF Assay (JAK1); settings: [ATP] 31.8 μM
In short: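 Phosphorylation of a common biotinylated peptide by each catalytic domain is measured by HTRF. The ATP-started reaction runs 120 min at room temperature before EDTA quench and detection.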

[2] = molecular target: JAK2 (recombinant purified GST-tagged catalytic domain) (Homo sapiens (Human), UniProt O60674); test: Jak Biochemical HTRF Assay (JAK2); settings: [ATP] 8.5 μM
Sequence of JAK2 (recombinant purified GST-tagged catalytic domain) (O60674 849-1124): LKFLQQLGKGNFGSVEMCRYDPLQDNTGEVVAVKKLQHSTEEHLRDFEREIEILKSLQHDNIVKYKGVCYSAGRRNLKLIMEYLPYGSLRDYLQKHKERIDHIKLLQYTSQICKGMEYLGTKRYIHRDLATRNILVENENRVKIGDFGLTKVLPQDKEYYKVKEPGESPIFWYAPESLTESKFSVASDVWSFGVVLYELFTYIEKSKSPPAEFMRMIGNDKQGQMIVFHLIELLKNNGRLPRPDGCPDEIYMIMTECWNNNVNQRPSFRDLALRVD

Sequence of JAK1 (recombinant purified GST-tagged catalytic domain) (P23458 875-1153): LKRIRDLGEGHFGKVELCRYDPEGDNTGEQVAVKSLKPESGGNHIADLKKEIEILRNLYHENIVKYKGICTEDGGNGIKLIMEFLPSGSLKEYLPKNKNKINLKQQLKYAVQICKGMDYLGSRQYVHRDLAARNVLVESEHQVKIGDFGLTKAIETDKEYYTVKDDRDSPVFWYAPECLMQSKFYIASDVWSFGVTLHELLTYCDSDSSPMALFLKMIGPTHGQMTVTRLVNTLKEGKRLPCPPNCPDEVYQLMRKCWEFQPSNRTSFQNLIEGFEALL

Row | Compound | IC50 [1] [nM] | IC50 [2] [nM]
1 | COC1CN([C@H]2CC[C@@](CC#N)(n3nc(Nc4ccc(OC(F)(F)F)cc4)c4c(=O)[nH]ccc43)CC2)C1 [Example 18-15, Cis 2-(4-(3-methoxyazetidin-1-yl)-1-(4-oxo-3-((4-(trifluoromethoxy)phenyl)amino)-4,5-dihydro-1H-pyrazolo[4,3-c]pyridin-1-yl)cyclohexyl)acetonitrile] | 151 | 1140
2 | CC(C)(C)OC(=O)[C@H]1CC[C@](CC#N)(n2nc(Nc3ccc(S(C)(=O)=O)cc3)c3c(=O)[nH]ccc32)CO1 [Example 5-40, (2R,5R)-tert-butyl 5-(cyanomethyl)-5-(3-((4-(methylsulfonyl)phenyl)amino)-4-oxo-4,5-dihydro-1H-pyrazolo [4,3-c]pyridin-1-yl) tetrahydro-2H-pyran-2-carboxylate] | 2.06 | 14.6
3 | N#CC[C@]1(n2nc(Nc3ccc([C@]4(C(F)(F)F)CCCCN4)cc3)c3c(=O)[nH]ccc32)CCOC[C@H]1F (single isomer, unassigned) [Example 5-263, 2-((3S,4S or 3R,4R)-3-fluoro-4-(4-oxo-3-((4-((S or R)-2-(trifluoromethyl)piperidin-2-yl)phenyl)amino)-4,5-dihydro-1H-pyrazolo[4,3-c]pyridin-1-yl)tetrahydro-2H-pyran-4-yl)acetonitrile] | 0.48 | 0.77
4 | Cc1cc(Nc2nn(C3(CC#N)CCN(c4cc(C(F)(F)F)ccn4)CC3)c3cc[nH]c(=O)c23)ccc1C(=O)N1CCC(F)(F)CC1 [Example 16-4, 2-(4-(3-(4-(4,4-difluoropiperidine-1-carbonyl)-3-methylphenylamino)-4-oxo-4,5-dihydropyrazolo[4,3-c]pyridin-1-yl)-1-(4-(trifluoromethyl)pyridin-2-yl)piperidin-4-yl)acetonitrile] | 2.01 | 2.01
5 | CC(C)NC(C)(C)c1ccc(Nc2nn(C3(CC#N)CCN(C(=O)OC(C)(C)C)CC3)c3cc[nH]c(=O)c23)cc1 [Example 5-276, tert-butyl 4-(cyanomethyl)-4-{3-[(4-{1-methyl-1-[(1-methylethyl)amino]ethyl}phenyl)amino]-4-oxo-4,5-dihydro-1H-pyrazolo[4,3-c]pyridin-1-yl}piperidine-1-carboxylate] | 0.57 | 0.4
6 | CN(C)S(=O)(=O)c1ccc(Nc2nn([C@]3(CC#N)COCC[C@@H]3F)c3cc[nH]c(=O)c23)cc1 (single isomer, unassigned) [Example 5-180, 4-({1-[(3R,4S or 3S,4R)-3-(cyanomethyl)-4-fluorotetrahydro-2H-pyran-3-yl]-4-oxo-4,5-dihydro-1H-pyrazolo[4,3-c]pyridin-3-yl}amino)-N,N-dimethylbenzene-sulfonamide] | 0.84 | 1.84

Now those with a lower IC50 [1], led by results:

Row | IC50 [1] [nM] | IC50 [2] [nM] | Compound
7 | 0.27 | 0.97 | CN(C)S(=O)(=O)c1ccc(Nc2nn(C3(CC#N)CCN(C(=O)Oc4ccc(F)cc4)CC3)c3cc[nH]c(=O)c23)cc1 [Example 10-3, 4-fluorophenyl 4-(cyanomethyl)-4-(3-((4-(N,N-dimethylsulfamoyl)phenyl)amino)-4-oxo-4,5-dihydro-1H-pyrazolo[4,3-c]pyridin-1-yl)piperidine-1-carboxylate]
8 | 0.13 | 1.36 | Cc1cc(Nc2nn([C@]3(CC#N)CC[C@@H](C(=O)OC(C)(C)C)OC3)c3cc[nH]c(=O)c23)ccc1-n1cccn1 [Example 5-219, (2S,5S)-tert-butyl 5-(cyanomethyl)-5-(3-((3-methyl-4-(1H-pyrazol-1-yl)phenyl)amino)-4-oxo-4,5-dihydro-1H-pyrazolo [4,3-c]pyridin-1-yl) tetrahydro-2H-pyran-2-carboxylate]
9 | 0.14 | 1.32 | CN(C)S(=O)(=O)c1ccc(Nc2nn(C3(CC#N)CCN(C(=O)CC(C)(C)C)CC3)c3cc[nH]c(=O)c23)cc1 [Example 9-23, 4-({1-[4-(cyanomethyl)-1-(3,3-dimethylbutanoyl)piperidin-4-yl]-4-oxo-4,5-dihydro-1H-pyrazolo[4,3-c]pyridin-3-yl}amino)-N,N-dimethylbenzenesulfonamide]
